Measurements from ChEMBL document CHEMBL5360606, “Discovery of New Binders for DCAF1, an Emerging Ligase Target in the Targeted Protein Degradation Field” (ACS Med Chem Lett, 2023).

Columns and labels:
Polycomb protein EED [1] = target: T1, Polycomb protein EED (Homo sapiens, UniProt O75530); test: Binding affinity to his-tagged EED (76 to 441 residues) (unknown origin) expressed in Escherichia coli BL21 (DE3) assessed as dissociation constant by SPR analysis
Polycomb protein EED [2] = target: T1, Polycomb protein EED; test: Binding affinity to his-tagged EED (76 to 441 residues) (unknown origin) expressed in Escherichia coli BL21 (DE3) using H3K27me3 as substrate assessed as dissociation constant

T1 sequence (O75530 whole entry, the tested form may be a part): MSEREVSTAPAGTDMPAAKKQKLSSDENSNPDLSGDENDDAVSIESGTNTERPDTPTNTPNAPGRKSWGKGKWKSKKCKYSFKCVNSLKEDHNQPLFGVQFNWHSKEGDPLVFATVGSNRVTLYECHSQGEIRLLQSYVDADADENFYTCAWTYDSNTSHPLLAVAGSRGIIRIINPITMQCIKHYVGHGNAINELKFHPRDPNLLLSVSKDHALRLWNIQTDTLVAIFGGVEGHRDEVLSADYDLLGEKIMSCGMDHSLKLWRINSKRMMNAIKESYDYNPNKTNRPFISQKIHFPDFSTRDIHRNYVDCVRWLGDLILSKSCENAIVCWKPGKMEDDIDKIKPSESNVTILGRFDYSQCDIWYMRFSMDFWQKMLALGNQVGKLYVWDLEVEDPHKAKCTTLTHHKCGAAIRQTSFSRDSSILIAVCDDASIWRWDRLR

SMILES	Kd (Polycomb protein EED [1]) [µM]	Kd (Polycomb protein EED [2]) [µM]
NC1=NCC(c2cccc(Oc3ccc(Cl)cc3)c2)C1 (centres undefined)	~360	
Clc1ccc(C2(C3=Cc4ccccc4C4=NCCN34)CC2)cc1		25
CC(C)(Cc1ccccc1)C1=Cc2ccccc2C2=NCCN12		21
Fc1ccccc1C1=Cc2ccccc2C2=NCCN12	13.5	
